Measurements as given in patent US9617330B2, “Chemorepulsion of cells” (Celtaxsys, Inc., priority 2006, dated 2017).
Where two headings read alike, the source gives them in different places.

Columns and labels:
B-cell = test: Trans-well migration assay (Example 1), net migratory response; conditions: net observed response
Description: Prior to beginning the assay 0.5% Fetal Calf Serum (FCS) in Iscove's Modified Dulbecco's Medium (IMDM) is prepared and stored on ice (Assay Medium). Migratory cells at a concentration of 2×10^7 cells/ml are suspended in Assay Medium. T-cells isolated from donor blood or buffy coats are allowed to rest overnight in Assay Medium at 37° C. in 5% CO2. Neutrophils, monocytes and B cells are utilized as soon as they are purified from donor blood or other source of human origin. Four serial (10×) dilutions of the ligand are then prepared in Assay Medium (normally 10 μg/ml to 0.01 μg/ml).
Plates are removed from the packaging, leaving the membrane behind and intact. The membrane is set aside. Into each well is pipetted 31 μl of solution. For media controls and fugetaxis (chemorepellent) samples, Assay Medium is used. For chemoattraction samples, the appropriate dilution of agent in assay medium is used.
Using a sterile needle, all small bubbles present in each well are popped and the membrane is carefully placed onto the plate, starting at one side and slowly lowering the other edge onto the plate.
Then 29 μl is pipetted into each circle imprinted on the polycarbonate or polyester membrane. For media controls and chemoattraction samples, Assay Medium is used. For fugetaxis (chemorepellent) samples, the appropriate dilution of ligand in assay medium is used.
To each 29 uL aliquot above is added 2 μl of cells (40,000 cells). It is important to ensure that before beginning the cells are well suspended and that they are mixed. This mixing can be accomplished by agitating the tube between each addition.
The plate is then covered with the supplied lid and incubated 1-3 hours in a humidified incubator at 37° C. in 5% CO2. Following the incubation period, the liquid from the top of the plate is removed with a tissue or similar blotting material (e.g. a Kimwipe). The membrane is carefully removed from the top of the plate and discarded. […] Using a multichannel pipettor, each well of the microplate is rinsed with 25 μl Phosphate Buffered Saline (Mediatech #21-040-CV) and transferred to the same wells in the white microplate. Using a multichannel pipettor, 50 μl CellTiter-Glo Luminescent Cell Viability Assay (Promega #G7572) is added to each well and mixed.
The plate is read using the Perkin Elmer Victor^3V plate reader using the Large Aperture Luminescence setting at 8 mm height above the plate with a dwell time of 1 s to quantify the number of migrated cells.
The results reported reflect the net observed migratory response of the cells to the ligand and are not based on the definition of unimodal fugetaxins.

Neutrophils = test: High throughput transmigration assay (Example 9), chemorepulsion; assay type: cell-based, human
Monocyte = test: Trans-well migration assay (Example 1), net migratory response
[1] = system: Eo-HL60 (HL-60 clone 15 differentiated to eosinophil-like phenotype); test: as above; assay type: cell-based, human; conditions: net observed response
[2] = Neutrophils, mean of three donors at concentration of highest activity, range 0.00125-1.25 μM
[3] = neutrophils, 0.00125 μM, one donor, triplicate, ± SD
[4] = neutrophils, 0.0125 μM, one donor, triplicate, ± SD
[5] = neutrophils, 0.125 μM, one donor, triplicate, ± SD
[6] = neutrophils, 1.25 μM, one donor, triplicate, ± SD
[7] = Monocyte, net observed response

Molecule: COc1cc(CNC(=O)CCCC/C=C/C(C)C)ccc1O [Capsaicin, reference compound]
- Migratory Response (B-cell): chemorepulsion

Molecule: CC[C@H]1OC(=O)[C@H](C)[C@@H](O[C@H]2C[C@@](C)(OC)[C@@H](O)[C@H](C)O2)[C@H](C)[C@@H](O[C@@H]2O[C@H](C)C[C@H](N(C)C)[C@H]2O)[C@](C)(O)C[C@@H](C)C(=O)[C@H](C)[C@@H](O)[C@]1(C)O [Erythromycin, reference compound]
- Repellent Index (Neutrophils; [2]): 4.8
- Repellent Index (Neutrophils; [3]): 1.75 ± 0.40
- Repellent Index (Neutrophils; [4]): 2.29 ± 1.61
- Repellent Index (Neutrophils; [5]): 3.29 ± 1.11
- Repellent Index (Neutrophils; [6]): 6.12 ± 2.53

Molecule: O=c1c(-c2ccc(O)cc2)coc2cc(O)cc(O)c12 [Genistein, reference compound]
- Repellent Index (Neutrophils; [2]): 1.3
- Migratory Response (B-cell): chemorepulsion

Molecule: CC(C)=CCC[C@]1(C)[C@@H](CC=C(C)C)C[C@@]2(CC=C(C)C)C(=O)[C@]1(C(=O)C(C)C)C(=O)C(CC=C(C)C)=C2O [Hyperforin, reference compound]
- Migratory Response (Monocyte): chemorepulsion

Molecule: CC(=O)O[C@H]1C(=O)[C@@]2(C)[C@H]([C@H](OC(=O)c3ccccc3)[C@]3(O)C[C@H](OC(=O)[C@H](O)[C@@H](NC(=O)c4ccccc4)c4ccccc4)C(C)=C1C3(C)C)[C@]1(OC(C)=O)CO[C@@H]1C[C@@H]2O [Paclitaxel, reference compound]
- Migratory Response (Monocyte; [7]): chemorepulsion
- Migratory Response [1]: chemorepulsion

Molecule: O.O.O=c1c(O)c(-c2ccc(O)c(O)c2)oc2cc(O)cc(O)c12 [Quercetin dihydrate, reference compound]
- Migratory Response (B-cell): chemorepulsion
- Migratory Response [1]: chemorepulsion

Molecule: Oc1ccc(C=Cc2cc(O)cc(O)c2)cc1 [Resveratrol, reference compound]
- Repellent Index (Neutrophils; [2]): 1.4
- Repellent Index (Neutrophils; [3]): 2.65 ± 0.29
- Repellent Index (Neutrophils; [4]): 2.80 ± 0.32
- Repellent Index (Neutrophils; [5]): 2.05 ± 0.28
- Repellent Index (Neutrophils; [6]): 1.32 ± 0.50
- Migratory Response (B-cell): chemorepulsion
- Migratory Response [1]: chemorepulsion

Molecule: (−)-Epigallocatechin Gallate [EGCG ((−)-Epigallocatechin Gallate), reference compound]
- Migratory Response (B-cell): chemorepulsion

Molecule: Antithrombin III
- Repellent Index (Neutrophils; Neutrophils, mean of three donors at concentration of highest activity, range 0.000573-0.573 μM): 2.2
- Repellent Index (Neutrophils; neutrophils, 0.000573 μM, one donor, triplicate, ± SD): 1.08 ± 0.36
- Repellent Index (Neutrophils; neutrophils, 0.00573 μM, one donor, triplicate, ± SD): 1.63 ± 0.67
- Repellent Index (Neutrophils; neutrophils, 0.0573 μM, one donor, triplicate, ± SD): 3.17 ± 0.98
- Repellent Index (Neutrophils; neutrophils, 0.573 μM, one donor, triplicate, ± SD): 5.55 ± 1.71

Molecule: CXCL2: chemokine
- Repellent Index (Neutrophils; [2]): 1.6

Molecule: Concanavalin A
- Migratory Response (Monocyte; [7]): chemorepulsion
- Migratory Response (B-cell): chemorepulsion

Molecule: Eotaxin: chemokine
- Migratory Response (B-cell): chemorepulsion

Molecule: Galectin-1: carbohydrate binding protein (galectin), full-length, purchased; accession P09382
- Repellent Index (Neutrophils; [2]): 2.3
- Repellent Index (Neutrophils; [3]): 0.80 ± 0.08
- Repellent Index (Neutrophils; [4]): 0.96 ± 0.22
- Repellent Index (Neutrophils; [5]): 1.05 ± 0.14
- Repellent Index (Neutrophils; [6]): 3.70 ± 0.29
- Migratory Response (Monocyte; [7]): chemorepulsion
- Migratory Response [1]: chemorepulsion

Molecule: Galectin-7: full-length galectin protein, purchased
- Migratory Response (B-cell): chemorepulsion

Molecule: HSP40 Human: heat shock protein; accession BAA08495
- Repellent Index (Neutrophils; [2]): 1.4
- Migratory Response (Monocyte; [7]): chemorepulsion
- Migratory Response [1]: chemorepulsion

Molecule: Lipid A Diphos [reference compound]
- Migratory Response [1]: chemorepulsion

Molecule: MCP-4: chemokine
- Migratory Response (Monocyte; [7]): chemorepulsion
- Migratory Response (B-cell): chemorepulsion

Molecule: N-acetylmuramyl (MDP) [reference compound]
- Migratory Response (Monocyte): chemorepulsion
- Migratory Response [1]: chemorepulsion

Molecule: Poly(I:C) [reference compound]
- Repellent Index (Neutrophils; Neutrophils, mean of three donors at concentration of highest activity, range 0.01-10 μg/ml): 1.4
- Migratory Response (Monocyte; [7]): chemorepulsion
- Migratory Response (B-cell): chemorepulsion
- Migratory Response [1]: chemorepulsion

Molecule: Tropomyosin
- Repellent Index (Neutrophils; [2]): 1.7
- Repellent Index (Neutrophils; [3]): 2.57 ± 0.73
- Repellent Index (Neutrophils; [4]): 2.26 ± 0.86
- Repellent Index (Neutrophils; [5]): 2.23 ± 0.68
- Repellent Index (Neutrophils; [6]): 1.67 ± 0.16

B1: RANTES: chemokine (protein, UniProt P13501 24-91, looked up)
C-C motif chemokine 5: SPYSSDTTPCCFAYIARPLPRAHIKEYFYTSGKCSNPAVVFVTRKNRQVCANPEKKWVREYINSLEMS
- Migratory Response (Monocyte; [7]): chemorepulsion
- Migratory Response (B-cell): chemorepulsion

B2: Leukotactin-1: chemokine (protein, UniProt Q16663 22-113, looked up)
C-C motif chemokine 15: QFTNDAETELMMSKLPLENPVVLNSFHFAADCCTSYISQSIPCSLMKSYFETSSECSKPGVIFLTKKGRQVCAKPSGPGVQDCMKKLKPYSI
- Migratory Response (B-cell): chemorepulsion

B3: Eotaxin-2: chemokine (protein, UniProt O00175 27-119, looked up)
C-C motif chemokine 24: VVIPSPCCMFFVSKRIPENRVVSYQLSSRSTCLKAGVIFTTKKGQQFCGDPKQEWVQRYMKNLDAKQKKASPRARAVAVKGPVQRYPGNQTTC
- Migratory Response (Monocyte; [7]): chemorepulsion
- Migratory Response (B-cell): chemorepulsion

B4: HSP32 Rat: heat shock protein; accession P06762/AAH91164 (protein, UniProt P06762 1-289, looked up)
Heme oxygenase 1: MERPQLDSMSQDLSEALKEATKEVHIRAENSEFMRNFQKGQVSREGFKLVMASLYHIYTALEEEIERNKQNPVYAPLYFPEELHRRAALEQDMAFWYGPHWQEAIPYTPATQHYVKRLHEVGGTHPELLVAHAYTRYLGDLSGGQVLKKIAQKAMALPSSGEGLAFFTFPSIDNPTKFKQLYRARMNTLEMTPEVKHRVTEEAKTAFLLNIELFEELQALLTEEHKDQSPSQTEFLRQRPASLVQDTTSAETPRGKSQISTSSSQTPLLRWVLTLSFLLATVAVGIYAM
- Repellent Index (Neutrophils; [2]): 1.8
- Migratory Response [1]: chemorepulsion

B5: TARC: chemokine (protein, UniProt Q92583 24-94, looked up)
C-C motif chemokine 17: ARGTNVGRECCLEYFKGAIPLRKLKTWYQTSEDCSRDAIVFVTVQGRAICSDPNNKRVKNAVKYLQSLERS
- Migratory Response (B-cell): chemorepulsion

B6: Eotaxin-3: chemokine (protein, UniProt Q9Y258 24-94, looked up)
C-C motif chemokine 26: TRGSDISKTCCFQYSHKPLPWTWVRSYEFTSNSCSQRAVIFTTKRGKKVCTHPRKKWVQKYISLLKTPKQL
- Migratory Response (Monocyte; [7]): chemorepulsion
- Migratory Response (B-cell): chemorepulsion

B7: MDC: chemokine (protein, UniProt O00626 25-93, looked up)
C-C motif chemokine 22: GPYGANMEDSVCCRDYVRYRLPLRVVKHFYWTSDSCPRPGVVLLTFRDKEICADPRVPWVKMILNKLSQ
- Migratory Response (B-cell): chemorepulsion

B8: HCC-1: chemokine (protein, UniProt Q16627 20-93, looked up)
C-C motif chemokine 14: TKTESSSRGPYHPSECCFTYTTYKIPRQRIMDYYETNSQCSKPGIVFITKRGHSVCTNPSDKWVQDYIKDMKEN
- Migratory Response (B-cell): chemorepulsion

B9: Cathespin G, Human Neutrophil: Cathespin G, Human Neutrophil (protein, UniProt P08311 21-244, looked up)
Cathepsin G: IIGGRESRPHSRPYMAYLQIQSPAGQSRCGGFLVREDFVLTAAHCWGSNINVTLGAHNIQRRENTQQHITARRAIRHPQYNQRTIQNDIMLLQLSRRVRRNRNVNPVALPRAQEGLRPGTLCTVAGWGRVSMRRGTDTLREVQLRVQRDRQCLRIFGSYDPRRQICVGDRRERKAAFKGDSGGPLLCNNVAHGIVSYGKSSGVPPEVFTRVSSFLPWIRTTMRS
- Migratory Response (Monocyte; [7]): chemorepulsion
- Migratory Response (B-cell): chemorepulsion
- Migratory Response [1]: chemorepulsion

B10: MIP-1 beta: chemokine (protein, UniProt P13236 24-92, looked up)
C-C motif chemokine 4: APMGSDPPTACCFSYTARKLPRNFVVDYYETSSLCSQPAVVFQTKRSKQVCADPSESWVQEYVYDLELN
- Migratory Response (Monocyte; [7]): chemorepulsion
- Migratory Response (B-cell): chemorepulsion

B11: SLC: chemokine (protein, UniProt O00585 24-134, looked up)
C-C motif chemokine 21: SDGGAQDCCLKYSQRKIPAKVVRSYRKQEPSLGCSIPAILFLPRKRSQAELCADPKELWVQQLMQHLDKTPSPQKPAQGCRKDRGASKTGKKGKGSKGCKRTERSQTPKGP
- Migratory Response (Monocyte; [7]): chemorepulsion

B12: Fractalkine: chemokine (protein, UniProt P78423 25-397, looked up)
Fractalkine: QHHGVTKCNITCSKMTSKIPVALLIHYQQNQASCGKRAIILETRQHRLFCADPKEQWVKDAMQHLDRQAAALTRNGGTFEKQIGEVKPRTTPAAGGMDESVVLEPEATGESSSLEPTPSSQEAQRALGTSPELPTGVTGSSGTRLPPTPKAQDGGPVGTELFRVPPVSTAATWQSSAPHQPGPSLWAEAKTSEAPSTQDPSTQASTASSPAPEENAPSEGQRVWGQGQSPRPENSLEREEMGPVPAHTDAFQDWGPGSMAHVSVVPVSSEGTPSREPVASGSWTPKAEEPIHATMDPQRLGVLITPVPDAQAATRRQAVGLLAFLGLLFCLGVAMFTYQSLQGCPRKMAGEMAEGLRYIPRSCGSNSYVLVPV
- Migratory Response (Monocyte; [7]): chemorepulsion
- Migratory Response (B-cell): chemorepulsion
